Measurements from BindingDB's records for doi:10.1021/jm00350a005 (1982).

Legend:
[1] = biological target: 5-hydroxytryptamine receptor 1A/1B/1D/1E/1F/2A/2B/2C/3A/3B/3C/3D/3E/4/5A/6/7; experiment: Ability to displace [3H]5-HT binding from 5-hydroxytryptamine receptor site using 1 uM LSD as masking ligand
[2] = biological target: 5-hydroxytryptamine receptor 1A/1B/1D/1E/1F/2A/2B/2C/3A/3B/3C/3D/3E/4/5A/6/7; experiment: Ability to displace [3H]5-HT binding to 5-hydroxytryptamine receptor site using 1 uM LSD as masking ligand, […].
[3] = biological target: 5-hydroxytryptamine receptor 1A/1B/1D/1E/1F/2A/2B/2C/3A/3B/3C/3D/3E/4/5A/6/7; experiment: Ability to displace [3H]5-HT binding to 5-hydroxytryptamine receptor using 1 uM LSD as masking ligand, activity is expressed as Kd.
[4] = biological target: 5-hydroxytryptamine receptor 1A/1B/1D/1E/1F/2A/2B/2C/3A/3B/3C/3D/3E/4/5A/6/7; experiment: Ability to displace [3H]5-HT binding to 5-hydroxytryptamine receptor site using 1 uM LSD as masking ligand

For `CC(C)N(CCc1c[nH]c2cc3c(cc12)OCO3)C(C)C`, the IC50 [1] was 933 µM.
Molecule `CN(C)CCc1c[nH]c2cc3c(cc12)OCO3` has a Kd [2] of 8.4 µM.
`CSc1ccc2[nH]cc(CCN(C)C)c2c1` gave a Kd [3] of 0.043 µM.
`CSc1cccc2[nH]cc(CCN(C)C)c12` gave a Kd [2] of 8.4 µM and an IC50 [4] of 151 µM.
